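Grown in 96-well plates, cells were treated for 48 hours with each compound at five concentrations. Insufficient inhibition: endpoint recorded as highest concentration tested. GI50: concentration for 50% inhibition of growth. TGI is the concentration that stops growth completely.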

Test systems include A498 renal; CAKI-1 renal; COLO 205 colon; DU-145 prostate; HCT-15 colon; HL-60(TB) leukemia; LOX IMVI melanoma; MDA-MB-231 breast; SR leukemia; T-47D breast.
What all share (test): inhibition of tumour cell growth, NCI panel, 48 h

With `COc1cc(C(O)c2nc3ccccc3s2)cc(OC)c1OC` (configuration not stated), the GI50 in the assay with A498 renal is 3.18 µM; with CAKI-1 renal, 4.89 µM; with COLO 205 colon, greater than 100 µM; with DU-145 prostate, greater than 100 µM; in the assay on HCT-15 colon, greater than 100 µM; in the assay on HL-60(TB) leukemia it was 14.2 µM. For the same compound, the GI50 was 50.6 µM in the assay on LOX IMVI melanoma, 58.7 µM with MDA-MB-231 breast, 9.01 µM in the assay on SR leukemia and 17.3 µM with T-47D breast. The TGI is greater than 100 µM in the assay on A498 renal; 93.9 µM in the assay with CAKI-1 renal; greater than 100 µM in the assay with COLO 205 colon; greater than 100 µM with DU-145 prostate; greater than 100 µM with HCT-15 colon; greater than 100 µM with HL-60(TB) leukemia. Besides, the TGI in the assay on LOX IMVI melanoma, in the assay with MDA-MB-231 breast, with SR leukemia and in the assay with T-47D breast was greater than 100 µM each time.

Regarding `O=C1c2ccc3c4c5ccc(c24)C(=O)N1CCCOCCCCOCCCNCc1ccc(cc1)CNCCCOCCCCOCCCN(C3=O)C5=O`, the GI50 is 7.89 µM in the assay with A498 renal; 0.834 µM in the assay with CAKI-1 renal; 0.531 µM with COLO 205 colon; 0.886 µM in the assay with DU-145 prostate; 0.926 µM in the assay with HCT-15 colon; 1.01 µM in the assay with HL-60(TB) leukemia. Moreover, the GI50 with LOX IMVI melanoma was 0.797 µM; in the assay with MDA-MB-231 breast it was 1.07 µM; in the assay with SR leukemia, 0.621 µM; in the assay on T-47D breast it was 0.997 µM. In addition, the TGI in the assay on A498 renal was 15 µM; in the assay with CAKI-1 renal it was 1.71 µM; with COLO 205 colon, 1.26 µM; with DU-145 prostate, 1.73 µM; in the assay on HCT-15 colon it was 1.97 µM; in the assay with HL-60(TB) leukemia, 2.03 µM. Further, the TGI is 1.52 µM in the assay with LOX IMVI melanoma, 2.98 µM with MDA-MB-231 breast, 2.62 µM with SR leukemia and 2.28 µM with T-47D breast.

Take `COc1ccc(C(=O)COc2cccc(/C=C3\CSc4ccccc4C3=O)c2)cc1`: the GI50 is 16.5 µM with A498 renal; 4.07 µM in the assay on CAKI-1 renal; 2.93 µM in the assay on COLO 205 colon; 2.53 µM in the assay with DU-145 prostate; 2.08 µM in the assay with HCT-15 colon; 2.25 µM in the assay with HL-60(TB) leukemia. The GI50 with LOX IMVI melanoma is 1.54 µM; with MDA-MB-231 breast, 4.33 µM; in the assay with SR leukemia, 0.395 µM; with T-47D breast, 2.33 µM. Besides, the TGI in the assay with A498 renal is 32 µM; in the assay on CAKI-1 renal it was 12.5 µM; in the assay on COLO 205 colon, 6.95 µM; with DU-145 prostate, 5.4 µM; in the assay with HCT-15 colon, 6.07 µM; in the assay on HL-60(TB) leukemia, greater than 23.2 µM. For the same compound, the TGI was 2.98 µM with LOX IMVI melanoma, 12.5 µM in the assay on MDA-MB-231 breast and 5.79 µM with T-47D breast.

As for `Cc1ccc2c(c1C)-c1c(ccc(C)c1C)C(=O)C2=O`, the TGI was found to be 4.35 µM in the assay on A498 renal; 7.84 µM in the assay with CAKI-1 renal; 4.62 µM in the assay with COLO 205 colon; 3.41 µM with DU-145 prostate; 11 µM in the assay with HCT-15 colon; 0.702 µM in the assay on HL-60(TB) leukemia. The TGI was determined as 3.76 µM in the assay on LOX IMVI melanoma, 8.57 µM in the assay with MDA-MB-231 breast, 0.56 µM in the assay with SR leukemia and 44.3 µM with T-47D breast.

As for `CCN1CCN(CC(=O)Nc2nc3ccc(NCc4ccc(Cl)cc4)cc3s2)CC1`, the GI50 with A498 renal is 4.09 µM; in the assay on CAKI-1 renal, 2.1 µM; in the assay on COLO 205 colon, 1.82 µM; with DU-145 prostate, 7.31 µM; with HCT-15 colon, 1.95 µM; in the assay with HL-60(TB) leukemia, 1.95 µM. Besides, the GI50 in the assay with LOX IMVI melanoma was 1.68 µM; in the assay with MDA-MB-231 breast, 1.89 µM; with SR leukemia it was 2.78 µM; in the assay with T-47D breast, 1.94 µM. Also, the TGI in the assay with A498 renal is 17 µM; in the assay on CAKI-1 renal, 5.19 µM; in the assay on COLO 205 colon it was 3.5 µM; in the assay on DU-145 prostate it was greater than 100 µM; in the assay with HCT-15 colon, 4.66 µM; with HL-60(TB) leukemia, 3.87 µM. Besides, the TGI was 3.17 µM with LOX IMVI melanoma, 4.02 µM with MDA-MB-231 breast, 17 µM in the assay on SR leukemia and 5.8 µM in the assay with T-47D breast.

Take `C=C(C)[C@@H]1CC[C@]2(C(=O)NCCNCCNCCN)CC[C@]3(C)[C@H](CC[C@@H]4[C@@]5(C)CC[C@H](O)C(C)(C)[C@@H]5CC[C@]43C)[C@@H]12`: the GI50 is 19.6 µM with A498 renal; 5.92 µM in the assay with CAKI-1 renal; 15.9 µM with COLO 205 colon; 14.1 µM with DU-145 prostate; 11.5 µM in the assay with HCT-15 colon; 7.33 µM in the assay with HL-60(TB) leukemia. Moreover, the GI50 is 14.9 µM in the assay on LOX IMVI melanoma, 15.1 µM with MDA-MB-231 breast, 6.76 µM in the assay on SR leukemia and 10.9 µM in the assay on T-47D breast. The TGI was 64.7 µM in the assay with A498 renal; 20.1 µM in the assay with CAKI-1 renal; 34.6 µM in the assay on COLO 205 colon; 30.1 µM with DU-145 prostate; 26.1 µM in the assay on HCT-15 colon; 31.2 µM with HL-60(TB) leukemia. The TGI in the assay on LOX IMVI melanoma was 28.6 µM; in the assay on MDA-MB-231 breast it was 37.1 µM; with SR leukemia, greater than 100 µM; in the assay on T-47D breast, 32.3 µM.

For the compound `NC1=C(Br)C(=O)c2ncccc2C1=O`, the TGI with A498 renal turned out to be 7.99 µM; in the assay with CAKI-1 renal, 2.84 µM; in the assay on COLO 205 colon it was 3.18 µM; in the assay with DU-145 prostate, 2.14 µM; with HCT-15 colon, 1.65 µM; with HL-60(TB) leukemia, 2.81 µM. The TGI in the assay on LOX IMVI melanoma was determined as 0.655 µM; in the assay with MDA-MB-231 breast it was 8.8 µM; with SR leukemia, 1.84 µM; in the assay on T-47D breast, 4.1 µM. Also, the GI50 is 0.709 µM in the assay with DU-145 prostate, 2.01 µM with MDA-MB-231 breast and 1.69 µM in the assay on T-47D breast.

For `C[C@H]1[C@H](C)CC[C@]2(C(=O)N3CCN(C)CC3)CC[C@]3(C)C(=CC[C@@H]4[C@@]5(C)C/C(=C/c6cccnc6)C(=O)C(C)(C)[C@@H]5CC[C@]43C)[C@H]12`, the GI50 in the assay with A498 renal is 1.52 µM; in the assay with CAKI-1 renal, 1.22 µM; in the assay on COLO 205 colon, 1.53 µM; in the assay with DU-145 prostate, 1.29 µM; in the assay on HCT-15 colon, 0.96 µM; in the assay with HL-60(TB) leukemia it was 0.487 µM. Moreover, the GI50 in the assay with LOX IMVI melanoma was 1.41 µM; with MDA-MB-231 breast it was 0.943 µM; in the assay with SR leukemia, 1.37 µM; in the assay on T-47D breast it was 0.511 µM. Also, the TGI was 2.92 µM in the assay with A498 renal; 2.46 µM in the assay with CAKI-1 renal; 4.78 µM with COLO 205 colon; 2.65 µM in the assay with DU-145 prostate; 2.45 µM in the assay with HCT-15 colon; 1.86 µM in the assay on HL-60(TB) leukemia. In addition, the TGI with LOX IMVI melanoma was 2.88 µM; with MDA-MB-231 breast, 2.25 µM; in the assay with SR leukemia, greater than 100 µM; with T-47D breast, 2.16 µM.

As to `O=Cc1cn(Cc2cccc(Cl)c2)c2ccccc12`, the GI50 with A498 renal was 0.135 µM; in the assay on CAKI-1 renal it was 0.214 µM; with COLO 205 colon, 0.355 µM; in the assay on DU-145 prostate, 12.5 µM; in the assay with HCT-15 colon, 11.6 µM; in the assay on HL-60(TB) leukemia it was 7.5 µM. Further, the GI50 in the assay with LOX IMVI melanoma was 7.4 µM; with MDA-MB-231 breast, 7.72 µM; with SR leukemia, 23.9 µM; in the assay with T-47D breast it was 0.736 µM. The TGI in the assay on A498 renal was found to be 0.299 µM; in the assay with CAKI-1 renal, 1.89 µM; in the assay with COLO 205 colon it was 14 µM; in the assay with DU-145 prostate it was 25 µM; with HCT-15 colon it was 25.2 µM; with HL-60(TB) leukemia it was 29.9 µM. Further, the TGI came out at 21 µM with LOX IMVI melanoma, 21.5 µM with MDA-MB-231 breast, 55.7 µM in the assay on SR leukemia and 13.4 µM in the assay with T-47D breast.

As to `O=C1/C(=C/c2ccc([N+](=O)[O-])o2)Oc2ccc(Br)cc21`, the GI50 in the assay on A498 renal is 15.9 µM; in the assay on CAKI-1 renal, 2.31 µM; with COLO 205 colon, 2.83 µM; in the assay with DU-145 prostate it was 9.31 µM; in the assay on HCT-15 colon, 2.62 µM; in the assay on HL-60(TB) leukemia it was 6.7 µM. The GI50 was 1.82 µM with LOX IMVI melanoma, 1.8 µM with MDA-MB-231 breast, 0.77 µM with SR leukemia and 1.92 µM in the assay on T-47D breast. Further, the TGI in the assay with A498 renal is 30.1 µM; in the assay with CAKI-1 renal, 6.59 µM; with COLO 205 colon it was 7.32 µM; in the assay with DU-145 prostate, 21.1 µM; in the assay with HCT-15 colon, 8.36 µM; with HL-60(TB) leukemia, 25.7 µM. Further, the TGI in the assay with LOX IMVI melanoma stood at 3.55 µM; in the assay with MDA-MB-231 breast, 3.84 µM; in the assay with SR leukemia, 5.52 µM; in the assay on T-47D breast it was 4.39 µM.

With `NC(=O)c1cc([N+](=O)[O-])c(Cl)c([N+](=O)[O-])c1`, the GI50 in the assay on A498 renal was 13.8 µM; in the assay on CAKI-1 renal it was 2.59 µM; in the assay on COLO 205 colon, 1.99 µM; in the assay on DU-145 prostate it was 2.15 µM; with HCT-15 colon, 1.98 µM; in the assay with HL-60(TB) leukemia it was 3.21 µM. Moreover, the GI50 in the assay on LOX IMVI melanoma is 1.86 µM; with MDA-MB-231 breast, 1.96 µM; in the assay on SR leukemia, 1.89 µM; in the assay on T-47D breast it was 2.32 µM. The TGI turned out to be 26.8 µM with A498 renal; 7.12 µM in the assay with CAKI-1 renal; 3.5 µM in the assay on COLO 205 colon; 3.92 µM in the assay with DU-145 prostate; 3.92 µM in the assay on HCT-15 colon; 8.55 µM with HL-60(TB) leukemia. In addition, the TGI with LOX IMVI melanoma was 3.7 µM; in the assay with MDA-MB-231 breast it was 3.84 µM; with SR leukemia, greater than 100 µM; with T-47D breast it was 5.12 µM.
